What all share (format): biochemical
In assay [1] the test system is PDE1 (calcium/calmodulin (Ca/CAM)-dependent PDE). As to the kind of experiment: PDE1 inhibition, rat kidney. The text has this: (§1) In vitro PDE inhibitory activities against cyclic guanosine 3', 5'-monophosphate (cGMP) and cyclic adenosine 3', 5'-monophosphate (cAMP) phosphodiesterases can be determined by measurement of their IC50 inhibition of enzyme activity.
(§2) The required PDE enzymes are isolated from a variety of sources, including rat kidney, human corpus cavernosum, human platelets, rabbit platelets, human cardiac ventricle, human skeletal muscle and bovine retina, essentially by the method of W J Thompson and M M Appleman (Biochem, 1971, 10, 311).
(§3) For example, for some of the studies the calcium/calmodulin (Ca/CAM)-dependent PDE (PDE1) is obtained from either human cardiac ventricle or rat kidney. The cGMP-stimulated PDE (PDE2), the cGMP-specificPDE (PDE5) and the cGMP-inhibited cAMP PDE (PDE3) are obtained from human corpus cavernosum tissue. PDE5 is also obtained from human platelets or rabbit platelets by techniques usual in the art. The cAMP-specific PDE (PDE4) is obtained from rat kidney. The photoreceptor PDE (PDE6) is obtained from bovine retina.
(§4) Assays are performed using a modification of the "batch" method of W J Thompson et al (Biochem, 1979, 18, 5228).

The target in assay [2] is T1, PDE5 (Oryctolagus cuniculus, UniProt G1SX67).
T1 construct: PDE5 is also obtained from human platelets or rabbit platelets; from tissue; host or cells: rabbit platelets
As to the kind of experiment: PDE5 inhibition, rabbit platelet.
Excerpt: as §1, §2, §3, §4

A further assay deals with Ca/CAM-dependent PDE1. In words: PDE1 inhibition stated in words (source not given). The conditions noted are these: for potency and selectivity as PDE1 inhibitor: summary in words.
Excerpt: as §1, §2, §3, §4

The target in assay [3] is T2, PDE5 (Homo sapiens, UniProt O76074).
T2 construct: PDE5 is also obtained from human platelets or rabbit platelets; from tissue; host or cells: human platelets
As to the kind of experiment: PDE5 inhibition, human platelet. The conditions noted are these: comparative study.
Excerpt: as §1, §2, §3, §4

Another assay addresses T3, PDE6 (photoreceptor PDE) (Bos taurus, UniProt P11541+P23439).
T3 construct: The photoreceptor PDE (PDE6) is obtained from bovine retina; from tissue; host or cells: bovine retina
T3 sequence (P11541 2-856 limits assumed): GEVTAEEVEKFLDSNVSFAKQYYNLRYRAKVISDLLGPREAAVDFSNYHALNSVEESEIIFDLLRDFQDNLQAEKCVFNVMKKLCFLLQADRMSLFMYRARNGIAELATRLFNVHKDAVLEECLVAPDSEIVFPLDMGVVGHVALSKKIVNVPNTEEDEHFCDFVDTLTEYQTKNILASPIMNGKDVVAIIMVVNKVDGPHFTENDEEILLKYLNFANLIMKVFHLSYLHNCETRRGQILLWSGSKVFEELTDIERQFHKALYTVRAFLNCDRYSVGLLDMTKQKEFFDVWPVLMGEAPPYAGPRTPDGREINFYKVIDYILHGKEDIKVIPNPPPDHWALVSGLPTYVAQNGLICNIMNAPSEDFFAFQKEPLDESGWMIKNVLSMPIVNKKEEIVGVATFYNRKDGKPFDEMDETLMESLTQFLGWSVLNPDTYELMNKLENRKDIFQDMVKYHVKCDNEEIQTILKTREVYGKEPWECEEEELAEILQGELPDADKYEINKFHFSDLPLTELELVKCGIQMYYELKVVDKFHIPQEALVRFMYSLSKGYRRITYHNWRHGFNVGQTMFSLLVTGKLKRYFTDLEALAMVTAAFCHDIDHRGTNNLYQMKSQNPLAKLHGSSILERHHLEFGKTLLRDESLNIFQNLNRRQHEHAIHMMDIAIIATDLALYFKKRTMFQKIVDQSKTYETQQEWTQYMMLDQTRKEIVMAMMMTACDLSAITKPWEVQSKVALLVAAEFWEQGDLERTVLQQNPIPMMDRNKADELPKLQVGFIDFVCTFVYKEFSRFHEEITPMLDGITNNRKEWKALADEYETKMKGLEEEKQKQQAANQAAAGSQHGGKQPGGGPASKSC
T3 sequence (P23439 2-850 limits assumed): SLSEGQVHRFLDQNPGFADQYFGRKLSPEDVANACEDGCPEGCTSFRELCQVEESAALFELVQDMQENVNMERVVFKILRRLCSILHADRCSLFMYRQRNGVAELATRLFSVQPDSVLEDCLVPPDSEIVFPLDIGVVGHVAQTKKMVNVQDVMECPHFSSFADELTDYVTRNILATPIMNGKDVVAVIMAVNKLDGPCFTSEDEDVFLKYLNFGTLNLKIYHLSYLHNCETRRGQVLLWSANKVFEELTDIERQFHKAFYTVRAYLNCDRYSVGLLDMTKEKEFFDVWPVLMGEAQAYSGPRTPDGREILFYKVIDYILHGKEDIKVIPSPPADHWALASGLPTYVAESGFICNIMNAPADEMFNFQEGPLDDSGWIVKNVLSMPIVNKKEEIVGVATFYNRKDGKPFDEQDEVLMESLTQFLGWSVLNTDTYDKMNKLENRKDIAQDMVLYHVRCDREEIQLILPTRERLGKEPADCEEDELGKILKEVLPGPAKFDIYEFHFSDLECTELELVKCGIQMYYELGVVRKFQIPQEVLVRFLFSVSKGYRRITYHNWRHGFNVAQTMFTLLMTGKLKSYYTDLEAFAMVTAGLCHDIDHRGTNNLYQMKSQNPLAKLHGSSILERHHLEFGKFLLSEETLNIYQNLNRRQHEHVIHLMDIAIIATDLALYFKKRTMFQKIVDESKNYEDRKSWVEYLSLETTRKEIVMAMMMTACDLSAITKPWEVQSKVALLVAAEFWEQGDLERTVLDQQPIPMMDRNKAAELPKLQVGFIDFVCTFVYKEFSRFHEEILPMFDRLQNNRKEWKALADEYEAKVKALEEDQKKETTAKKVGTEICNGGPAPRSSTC
As to the kind of experiment: PDE inhibition, PDE type 6 from bovine retina. Particulars: PDE type 6, bovine retina.
Excerpt: as §1, §2, §3, §4

Assay [4] addresses T4, PDE1 (calcium/calmodulin (Ca/CAM)-dependent PDE) (Homo sapiens, UniProt Q14123).
T4 construct: obtained from either human cardiac ventricle or rat kidney; from tissue; host or cells: human cardiac ventricle
In words: PDE inhibition, PDE type 1 from human cardiac ventricle. Particulars: PDE type 1, human cardiac ventricle.
Excerpt: as §1, §2, §3, §4

Another assay relates to PDE4 (cAMP-specific PDE). As to the kind of experiment: PDE inhibition, PDE type 4 from rat kidney. Particulars: PDE type 4, rat kidney.
Excerpt: as §1, §2, §3, §4

In assay [5] the target is T5, PDE2 (cGMP-stimulated PDE) (Homo sapiens, UniProt O00408).
T5 construct: are obtained from human corpus cavernosum tissue; from tissue; host or cells: human corpus cavernosum
T5 sequence (O00408 whole entry): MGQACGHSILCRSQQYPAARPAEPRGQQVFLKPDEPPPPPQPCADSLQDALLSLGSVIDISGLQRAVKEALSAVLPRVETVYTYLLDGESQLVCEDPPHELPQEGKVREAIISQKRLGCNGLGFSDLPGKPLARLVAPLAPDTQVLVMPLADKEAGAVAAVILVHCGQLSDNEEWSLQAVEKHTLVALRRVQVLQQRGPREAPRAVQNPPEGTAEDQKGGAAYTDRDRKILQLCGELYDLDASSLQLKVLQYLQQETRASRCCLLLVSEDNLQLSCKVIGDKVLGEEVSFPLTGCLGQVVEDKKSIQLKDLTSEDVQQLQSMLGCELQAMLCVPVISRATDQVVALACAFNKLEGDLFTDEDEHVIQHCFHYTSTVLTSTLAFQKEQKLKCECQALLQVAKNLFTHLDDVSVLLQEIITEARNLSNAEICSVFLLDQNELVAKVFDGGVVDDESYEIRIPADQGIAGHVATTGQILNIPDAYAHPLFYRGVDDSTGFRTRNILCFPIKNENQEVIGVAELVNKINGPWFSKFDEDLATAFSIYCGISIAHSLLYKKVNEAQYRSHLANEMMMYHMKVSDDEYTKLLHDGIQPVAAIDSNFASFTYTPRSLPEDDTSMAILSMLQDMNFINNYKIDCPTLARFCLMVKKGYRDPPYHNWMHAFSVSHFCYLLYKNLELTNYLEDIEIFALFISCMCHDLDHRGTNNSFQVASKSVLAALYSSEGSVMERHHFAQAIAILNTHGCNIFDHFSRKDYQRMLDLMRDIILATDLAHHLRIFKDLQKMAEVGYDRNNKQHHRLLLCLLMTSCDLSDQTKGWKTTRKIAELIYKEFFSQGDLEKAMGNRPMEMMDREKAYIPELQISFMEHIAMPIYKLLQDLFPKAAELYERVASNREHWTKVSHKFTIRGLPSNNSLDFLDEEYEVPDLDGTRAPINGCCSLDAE
As to the kind of experiment: PDE inhibition, PDE type 2 from human corpus cavernosum. Particulars: PDE type 2, human corpus cavernosum.
Excerpt: as §1, §2, §3, §4

Assay [6] relates to PDE3 (cGMP-inhibited cAMP PDE). In words: PDE inhibition, PDE type 3 from human corpus cavernosum. Particulars: PDE type 3, human corpus cavernosum.
Excerpt: as §1, §2, §3, §4

The next assay concerns the target T6, PDE5 (cGMP-specific PDE) (Homo sapiens, UniProt O76074).
T6 construct: are obtained from human corpus cavernosum tissue; from tissue; host or cells: human corpus cavernosum
In words: PDE inhibition, PDE type 5 from human corpus cavernosum. Particulars: PDE type 5, human corpus cavernosum.
Excerpt: as §1, §2, §3, §4

Where [7] appears, read: further studies, IC50 per protocol, read-out: RAT KIDNEY PDE1.
The mark [8] stands for this setting: further studies, IC50 per protocol, read-out: RABBIT PLATELET PDE5.
The mark [9] stands for this setting: rat kidney, comparative study, cGMP, read-out: cGMP / PDE1 INHIBITION - IC50 Values.
[10] abbreviates: rabbit platelet, comparative study, read-out: PDE5 INHIBITION - IC50 Values.

Entries after “also recorded” stand apart in the source; their conditions may differ. Read-outs that look alike come from different tables or passages of the source.

T4 sequence (Q14123 1-634 isoform Q14123-2): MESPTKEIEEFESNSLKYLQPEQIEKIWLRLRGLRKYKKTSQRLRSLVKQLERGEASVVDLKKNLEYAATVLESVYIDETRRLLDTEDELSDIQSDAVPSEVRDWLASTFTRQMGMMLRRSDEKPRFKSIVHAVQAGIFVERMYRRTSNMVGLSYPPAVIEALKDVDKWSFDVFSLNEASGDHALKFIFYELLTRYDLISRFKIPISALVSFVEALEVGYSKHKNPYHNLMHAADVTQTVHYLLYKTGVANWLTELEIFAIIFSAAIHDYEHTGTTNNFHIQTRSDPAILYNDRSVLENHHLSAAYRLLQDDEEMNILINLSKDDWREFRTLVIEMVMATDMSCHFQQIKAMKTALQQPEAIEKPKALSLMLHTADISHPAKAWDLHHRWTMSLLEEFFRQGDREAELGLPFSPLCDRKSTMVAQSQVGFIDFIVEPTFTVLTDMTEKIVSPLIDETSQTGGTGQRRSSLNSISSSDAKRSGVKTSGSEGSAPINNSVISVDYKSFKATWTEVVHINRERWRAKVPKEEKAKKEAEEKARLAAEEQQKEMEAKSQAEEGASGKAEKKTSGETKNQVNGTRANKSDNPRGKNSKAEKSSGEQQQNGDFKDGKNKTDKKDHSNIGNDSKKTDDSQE

On to `CCCc1nn(C)c2c(=O)[nH]c(Cc3ccccc3NS(C)(=O)=O)nc12` [Example 36], for which the IC50 in assay [1] (setting [7]) stood at 59 nM; on PDE5 [2] (setting [8]) it was 1800 nM. Further, the “potency and selectivity as PDE1 inhibitor” value in the assay on Ca/CAM-dependent PDE1 is “potent and selective PDE1 inhibitors”.
As to `CCCc1nn(C)c2c(=O)[nH]c(Cc3ccc(NS(=O)(=O)c4ccccc4)cc3)nc12` [Example 37], the IC50 in assay [1] (setting [7]) stood at 94 nM; at PDE5 [2] (setting [8]) it was 6400 nM. For the same compound, the “potency and selectivity as PDE1 inhibitor” value in the assay with Ca/CAM-dependent PDE1 is “potent and selective PDE1 inhibitors”.
As to `Cc1nn(C)c2c(=O)[nH]c(Cc3ccc(N(C)C)cc3)nc12` ['188 compound, reference compound], the IC50 on PDE5 [3] is 3200 nM; in [1] (setting [9]) it was 9900 nM; at PDE5 [2] (setting [10]), 2800 nM. Besides, the PDE1 inhibition result in the assay with Ca/CAM-dependent PDE1 (statement in words) is given as “not as effective at such low concentrations; also recorded: at least a weak PDE1 inhibitor”.
Turning to `CCCc1nn(C)c2c(=O)[nH]c(Cc3ccc(N(CC)CC)cc3)nc12` [Example 50, 5-[4-(diethylamino)benzyl]-1-methyl-3-propyl-6,7-dihydro-1H-pyrazolo[4,3-d]pyrimidin-7-one], the IC50 at PDE5 [3] worked out at 2700 nM; in assay [1] (setting [9]) it was 37 nM; against PDE6 (photoreceptor PDE), 2030 nM; in [4], 38 nM; with PDE4 (cAMP-specific PDE), 23000 nM; on PDE5 [2] (setting [10]), 6700 nM. Also, the values for the IC50 (in [5]; in assay [6]; against PDE5 (cGMP-specific PDE)) were 1990 nM, 3940 nM and 2490 nM, respectively. The “potency and selectivity as PDE1 inhibitor” value in the assay on Ca/CAM-dependent PDE1 is “potent and selective PDE1 inhibitors”.

For the origin of these results see US6235742A, “5-substituted pyrazolo[4,3-D]pyrimidin-7-ones” (Pfizer Inc., priority 1997, dated 2001).
